According to US20060127505A1, “Anti-inflammatory formulations” (priority 2002, published 2006):

How the values were obtained:
[1] = test system: CD3+CD25+ cells in human PBMC; assay: T lymphocyte activation (CD3+CD25+) in PHA-stimulated PBMC of asthma patients (Example 6); assay type: cell-based; conditions: PHA 50 μg/ml, 24 hours; 10^−7 M
Protocol: Experiments were carried out to determine whether formulations based on the platelet activating factor receptor (PAFR) antagonist and free radical scavenger Ginkgolide B (GB) in combination with the antioxidant carotenoid astaxanthin (ASX) suppress T cell activation in the same dose range as two commonly-used antihistamines: cetirizine dihydrochloride (CTZ/Zyrtec) and azelastine ([…]). […] Results are reported as stimulation indices (SI) of % CD3+CD25+ cells in cultures treated with PHA alone to % CD3+CD25+ cells in each drug-supplemented culture. […] Subjects for this study included 12 patients diagnosed with atopic asthma, 7 male and 5 female, ranging in age from 21 to 40 years (mean 28±1.8 years). Disease duration ranged from 2 to 12 years. Atopy was defined on the basis of one or more positive skin prick tests to a range of 20 allergens. None of the patients had received systemic therapy for at least 6 weeks prior to blood collection. The mean serum IgE was 335 (170-480) IU/ml. Venous blood for each subject was collected in polyethylene tubes containing EDTA during a one hour morning time interval. PBMC were separated by Ficoll-paque (Pharmacia, Uppsala, Sweden) density gradient centrifugation. Cells were washed and suspended in RPMI 1640 medium (Gibco BRL, Gaithersburg, Md.) at density of 1×10^6 cells/ml. PBMC were stimulated with 50 μg/ml Phytohemaglutinin (PHA) (Sigma Immunopharmaceuticals, St. Lous Mo.), or PHA plus 10^-8-10^-5 M astaxanthin (Natural Alternatives International (NAI) Inc., San Marcos Calif.); or ginkgolide B 10^-8-10^-6 M (NAI San Marcos Calif.); or selected combinations of ASX plus GB. Comparison of ASX and GB effects on T cell activation were made with two other pharmacological agents with anti-asthmatic properties by treating cells with 10^-7-10^-4 M cetirizine dihydrochloride (Pfizer Pharmaceuticals, Norwich Conn.); or 10^-7-10^-4 M azalestine hydrochloride (Wallace Pharmaceuticals, Somerset N.J.), followed by evaluation of cultures for the same biological endpoints as ASX/GB-treated cells. Each reagent was added at the outset of a 24 hours culture period, followed by harvest of cellular fraction for immunophenotyping studies. […] Two-color Flow cytometry was conducted using a Coulter Epics XL automated flow cytometer (Coulter Scientific, Hialeah, Fla., USA). Isotypic controls for the monoclonal antibodies (mAb) used to detect antigens of interest were established for each cell preparation. Positive analysis regions for cells expressing specific surface markers were set against controls and specific binding of fluorophore-conjugated mAb was analyzed by cytofluorography according to standard methods recommended by the manufacturer. Lymphocyte subpopulations were identified by position on forward and side scatter plots and live-gated. Expression of each antigen was reported as percentage cells positive for a particular T cell subpopulation defined by expression of CD3 (T lymphocyte marker) plus CD25, plus or minus standard error. Statistical analysis was performed using an independent t-test. All statistical analyses were performed using the SPSS for Windows statistical package (Norusis/SPSS, Inc.). […] The capacity of formulations evaluated in this study to suppress immune activation was measured as a stimulation index (SI), defined as the ratio of […].

[2] = test system: cAMP and cGMP concentrations in the lung tissue; assay: Ovalbumin-induced asthma in guinea pigs: cAMP and cGMP in lung tissue (radioimmunoassay); assay type: in vivo, guinea pig; conditions: lung tissue 24 hours after OV challenge
Protocol: The effect combinations of vitamin C, astaxanthin, and ginkolide on asthma-associated disease parameters ovalbumin(OA)-induced asthma in guinea pigs was evaluated. Twenty-four hours following OA challenge, animals are sacrificed and numbers of inflammatory cells (eosinophils, neutrophils, macrophages) are measured in bronchoalveolar lavage (BAL) fluid; and cAMP and cGMP concentrations in the lung tissue. The experiments were carried out as follows. Male Hartley guinea pigs (250-350 g) were sensitized by intramuscular injections of 0.35 ml of a 5% (W/V) ovalbumin (OA)/saline solution into each thigh on days 1 and 4. Guinea pigs were ready for asthmatic challenge after 25 days of ovalbumin injection. Asthmatic challenge was carried out with ovalbumin aerosol, and bronchoalveolar lavage (BAL) was done 24 hours later. The numbers of eosinophils, neutrophils, and macrophages in the BAL fluid were counted. Biopsies from lung tissues, cAMP and cGMP were measured using commercially available radioimmunoassay kits (Amersham). Immediately after sampling, lung biopsies were frozen by means of a Wollenberger clamp prechilled in liquid nitrogen. Samples were powdered with a pestle and mortar in liquid nitrogen and trichloro acetic acid (TCA) was added to the powdered frozen samples ([…] of tissue). Samples were further homogenized in the frozen TCA in the braying mortar and then centrifuged at 14,000×g for 10 min at 4° C. The supernatants were extracted 6 times in water-saturated diethylether, evaporated and assayed for cGMP by radioimmunoassay using liquid scintillation counter (Packard, Tri-Carb 2100TR). The dose-responsive effect of AX, EGb761, and vitamin C administered independently for suppression of asthma-associated parameters in allergen-induced, asthmatic guinea pigs was determined. Ibuprophen (IB) was used as the positive control. Concentration of inflammatory cells in bronchoalveolar lavage (BAL) fluid and levels of cAMP and cGMP in lung tissue were measured in guinea pigs 24 hours following challenge with OV. […] The dose-responsive effect of AX, EGb761, and vitamin C administered in combination for suppression of asthma-associated parameters in allergen-induced, asthmatic guinea pigs was determined. The combination of these three components was given each day for each guinea pig as a “cocktail”. Concentration of inflammatory cells in bronchoalveolar lavage (BAL) fluid and levels of cAMP and cGMP in lung tissue were measured in guinea pigs 24 hours following challenge with OV.

CC1=C(/C=C/C(C)=C/C=C/C(C)=C/C=C/C=C(C)/C=C/C=C(C)/C=C/C2=C(C)C(=O)[C@@H](O)CC2(C)C)C(C)(C)C[C@H](O)C1=O [astaxanthin, 3,3′-dihydroxy-4,4′-diketo-B-carotene]
SI (CD3+CD25+) [1]: 0.89±0.06
cAMP ([2]; 5 mg/kg): 6.9 ± 0.5 pmol (mg protein)^−1
cGMP ([2]; 5 mg/kg): 1.2 ± 0.1 pmol (mg protein)^−1
cAMP ([2]; 10 mg/kg): 8.1 ± 0.8 pmol (mg protein)^−1
cGMP ([2]; 10 mg/kg): 1.4 ± 0.1 pmol (mg protein)^−1
cAMP ([2]; 30 mg/kg): 9.6 ± 0.8 pmol (mg protein)^−1
cGMP ([2]; 30 mg/kg): 1.8 ± 0.3 pmol (mg protein)^−1
cAMP ([2]; 100 mg/kg): 12.6 ± 0.8 pmol (mg protein)^−1
cGMP ([2]; 100 mg/kg): 2.8 ± 0.3 pmol (mg protein)^−1
cAMP ([2]; 200 mg/kg): 12.1 ± 0.5 pmol (mg protein)^−1
cGMP ([2]; 200 mg/kg): 2.7 ± 0.2 pmol (mg protein)^−1
